Measured values published in patent publication US7579356B2, “Thia-tetraazaacenaphthylene kinase inhibitors” (Janssen Pharmaceutica NV, priority 2005, dated 2009).

Columns and labels:
Lyn kinase (human) = target: T1, Lyn kinase (human) (Homo sapiens, UniProt P07948); test: Lyn Kinase Assay; format: biochemical; conditions: test concentration of 2 μM
T1 construct: purchased Upstate Biotechnology, Lake Placid, N.Y
Procedure, shortened: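 Radiometric filter-binding assay with recombinant human Lyn, poly(Glu,Tyr) substrate (0.1 mg/mL final), 5 μM ATP plus γ-33P-ATP in MOPS pH 7.5/Mg acetate buffer; 40 min at 30 °C, stopped with phosphoric acid, counted by scintillation. Reported as percent inhibition at 2 μM, with IC50 (μM) where determined.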

c-Src kinase (human) = target: T2, c-Src kinase (human) (Homo sapiens, UniProt P12931); test: c-Src Kinase Assay; format: biochemical; conditions: test concentration of 2 μM; multiple values are separate assay results
T2 construct: purchased Upstate Biotechnology, Lake Placid, N.Y
Procedure, shortened: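 Inhibition was read as 33P incorporation, counted on P30 filtermats, after a 40 min, 30° C reaction. Human c-Src acted on 100 μM Cdc2 peptide with 5 μM ATP (final), pH 7.0 MOPS/MgCl2. Values are percent inhibition at 2 μM compound, or IC50 where determined.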

EGFR = target: T3, EGFR (Homo sapiens, UniProt P00533); test: EGFR Kinase Assay; format: biochemical; conditions: for IC50: GST-EGFR, ATP 5 μM; for inhibition at 2 µM: test concentration of 2 μM, compounds without an IC50, read-out: EGFR inhibition in percent
T3 construct: The intracellular portion of EGFR started at nucleotide 2189 (corresponding to amino acid 667) and ended at the termination codon; made in house; host or cells: Sf9 insect cells (baculovirus)
Procedure, shortened: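 GST-fused human EGFR intracellular domain (from aa 667), Sf9-expressed, phosphorylated biotinylated polyGluTyr with 5 μM ATP plus γ-33P ATP in Tris pH 8.0, MgCl2, vanadate, 1 mM DTT, 1 h at 30 °C. Streptavidin Flashplate scintillation read; triplicate 16-point half-log series from 200 uM; IC50 from % inhibition vs log concentration, else % inhibition at 2 μM.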

HER-2 = target: T4, HER-2 (Homo sapiens, UniProt P04626); test: HER-2 Kinase Assay; format: biochemical; conditions: for inhibition at 1 µM: test concentration of 1 μM; for IC50: value in parentheses
T4 construct: His6 with thrombin site (N); purchased Proqinase (Freiburg, Germany)
Procedure, shortened: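 GST/HIS6-tagged HER-2 aa 679–1255 kinase with biotinylated polyGluTyr (1.5 ng/μL), 1 μM ATP plus γ-33P-ATP, Mg2+/Mn2+, DTT, Hepes pH 7.5; 1 h at 30 °C. Substrate phosphorylation captured on streptavidin scintillation plates after EDTA/PBS washes; values are % inhibition at 1 μM or IC50.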

N87 cells = test: In Vivo Models - Inhibition of Tumor Growth, N87; conditions: Mus musculus, po, 720 h, 100 mg/kg, oral daily for 30 days, athymic mice; read-out: percent inhibition N87
Description: In Vivo Models—Inhibition of Tumor Growth
The ability of test compounds to inhibit unregulated growth of human tumor cells in vivo was evaluated by implanting human tumor cells into the hindflank of athymic mice, administering a test compound and then quantifying any change in tumor size.
Human epidermoid A431 carcinoma, N87 cells and BT474 cells were implanted subcutaneously into the hindflank of female athymic mice (Charles River) and allowed to grow for 6-10 days. After a measurable tumor was established (as determined by baseline caliper measurement), the animal was administered an oral dose of the test compound daily for a period of 30 days. Tumor size was measured every five days and the degree of inhibition was determined by comparing drug-treated animals to vehicle-treated animals.
Variations of this method are intended to include intraperitoneal injection or intravenous infusion as the route of administration and administration of the test compound either alone or in a combination therapy.
The inhibition of tumor growth values are shown in Table 8 at various test concentrations, as indicated. For compounds with multiple values at one test concentration, each value represents a separate assay result.

T1 sequence (P07948 whole entry): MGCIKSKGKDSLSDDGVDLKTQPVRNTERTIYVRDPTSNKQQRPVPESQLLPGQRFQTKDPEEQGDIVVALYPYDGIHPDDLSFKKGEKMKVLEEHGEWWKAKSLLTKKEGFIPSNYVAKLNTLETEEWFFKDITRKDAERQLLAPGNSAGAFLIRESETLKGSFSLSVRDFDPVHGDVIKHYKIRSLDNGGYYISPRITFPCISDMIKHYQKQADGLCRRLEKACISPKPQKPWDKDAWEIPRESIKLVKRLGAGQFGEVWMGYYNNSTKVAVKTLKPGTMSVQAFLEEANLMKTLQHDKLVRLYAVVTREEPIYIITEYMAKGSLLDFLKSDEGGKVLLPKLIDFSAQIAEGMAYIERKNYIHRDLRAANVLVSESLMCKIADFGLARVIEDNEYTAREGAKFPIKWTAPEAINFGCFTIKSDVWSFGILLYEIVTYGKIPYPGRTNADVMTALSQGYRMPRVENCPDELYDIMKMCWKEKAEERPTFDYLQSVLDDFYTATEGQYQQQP
T3 sequence (P00533 669-1210 limits assumed): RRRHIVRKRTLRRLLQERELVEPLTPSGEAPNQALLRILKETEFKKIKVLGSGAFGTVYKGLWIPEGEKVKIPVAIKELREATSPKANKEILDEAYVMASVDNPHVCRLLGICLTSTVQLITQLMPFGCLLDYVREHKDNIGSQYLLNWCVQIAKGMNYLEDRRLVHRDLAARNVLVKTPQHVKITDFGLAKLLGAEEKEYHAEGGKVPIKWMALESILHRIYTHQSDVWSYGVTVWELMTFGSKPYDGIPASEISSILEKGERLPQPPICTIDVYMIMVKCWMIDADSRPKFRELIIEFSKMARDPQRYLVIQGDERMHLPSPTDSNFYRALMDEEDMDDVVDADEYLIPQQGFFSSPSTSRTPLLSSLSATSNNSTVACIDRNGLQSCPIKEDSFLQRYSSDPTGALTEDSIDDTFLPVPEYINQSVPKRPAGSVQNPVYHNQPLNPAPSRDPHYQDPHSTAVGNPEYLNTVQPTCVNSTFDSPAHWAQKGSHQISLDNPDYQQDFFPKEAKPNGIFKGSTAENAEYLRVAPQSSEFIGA
T4 sequence (P04626 679-1255): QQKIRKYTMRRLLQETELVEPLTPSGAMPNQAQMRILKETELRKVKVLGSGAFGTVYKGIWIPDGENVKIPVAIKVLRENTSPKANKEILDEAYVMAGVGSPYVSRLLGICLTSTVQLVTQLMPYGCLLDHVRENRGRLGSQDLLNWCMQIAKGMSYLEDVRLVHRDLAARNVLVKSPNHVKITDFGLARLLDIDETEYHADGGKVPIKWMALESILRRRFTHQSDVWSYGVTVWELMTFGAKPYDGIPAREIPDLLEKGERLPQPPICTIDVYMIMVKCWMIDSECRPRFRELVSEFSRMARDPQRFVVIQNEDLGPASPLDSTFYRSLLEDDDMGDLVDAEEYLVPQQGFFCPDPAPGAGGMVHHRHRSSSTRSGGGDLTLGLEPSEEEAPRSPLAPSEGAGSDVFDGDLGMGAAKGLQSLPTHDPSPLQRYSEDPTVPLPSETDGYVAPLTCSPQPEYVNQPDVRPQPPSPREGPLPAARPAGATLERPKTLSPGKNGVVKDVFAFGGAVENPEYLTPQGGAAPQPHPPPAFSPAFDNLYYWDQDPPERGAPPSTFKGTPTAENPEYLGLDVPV
T2 sequence (P12931 whole entry): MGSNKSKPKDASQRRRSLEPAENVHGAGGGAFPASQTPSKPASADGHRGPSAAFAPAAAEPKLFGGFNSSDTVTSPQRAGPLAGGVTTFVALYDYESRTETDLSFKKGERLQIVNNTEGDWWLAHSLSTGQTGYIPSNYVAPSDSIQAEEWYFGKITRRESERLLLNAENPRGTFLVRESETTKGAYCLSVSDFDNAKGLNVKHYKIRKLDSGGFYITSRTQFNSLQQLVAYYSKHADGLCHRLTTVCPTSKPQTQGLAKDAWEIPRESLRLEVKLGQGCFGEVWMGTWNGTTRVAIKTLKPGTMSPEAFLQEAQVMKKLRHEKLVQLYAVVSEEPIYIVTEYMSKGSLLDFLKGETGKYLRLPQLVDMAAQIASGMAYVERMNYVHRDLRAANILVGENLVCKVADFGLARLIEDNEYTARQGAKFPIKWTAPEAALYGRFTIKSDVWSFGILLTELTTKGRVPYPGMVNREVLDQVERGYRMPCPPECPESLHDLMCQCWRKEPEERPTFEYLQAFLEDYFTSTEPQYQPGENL

SMILES	inhibition at 2 µM (Lyn kinase (human))	inhibition at 2 µM (c-Src kinase (human))	IC50 (EGFR)	inhibition at 1 µM (HER-2)	IC50 (HER-2)	inhibition at 2 µM (EGFR)	inhibition in vivo at 100 mg/kg (N87 cells)
CN1CCN(Cc2ccc(NC(=O)c3sc4ncnc5c4c3NC(=O)N5c3ccccc3Cl)cc2)CC1 [Cpd 151, 5-(2-chloro-phenyl)-4-oxo-4,5-dihydro-3H-1-thia-3,5,6,8-tetraaza-acenaphthylene-2-carboxylic acid [4-(4-methyl-piperazin-1-ylmethyl)-phenyl]-amide]	61%	53%	603 nM	29%			
O=C1Nc2csc3ncnc(c23)N1c1ccc2c(ccn2Cc2cccc(F)c2)c1 [Cpd 152, 5-[1-(3-fluoro-benzyl)-1H-indol-5-yl]-3H,5H-1-thia-3,5,6,8-tetraaza-acenaphthylen-4-one]	7%	-6%	333 nM		3720 nM		
O=C(Nc1ccc(CN2CCOCC2)cc1)c1sc2ncnc3c2c1NC(=O)N3c1ccc(F)c(Br)c1 [Cpd 153, 5-(3-bromo-4-fluoro-phenyl)-4-oxo-4,5-dihydro-3H-1-thia-3,5,6,8-tetraaza-acenaphthylene-2-carboxylic acid (4-morpholin-4-ylmethyl-phenyl)-amide]	-4%	16%	159 nM	70%	294 nM		
O=C(NCCCO)c1sc2ncnc3c2c1NC(=O)N3c1ccc(F)c(Br)c1 [Cpd 154, 5-(3-bromo-4-fluoro-phenyl)-4-oxo-4,5-dihydro-3H-1-thia-3,5,6,8-tetraaza-acenaphthylene-2-carboxylic acid (3-hydroxy-propyl)-amide]	7%	8%	592 nM	12%	> 10000 nM		
O=C(Nc1ccc(CN2CCCCC2)cc1)c1sc2ncnc3c2c1NC(=O)N3c1ccc(F)c(Br)c1 [Cpd 155, 5-(3-bromo-4-fluoro-phenyl)-4-oxo-4,5-dihydro-3H-1-thia-3,5,6,8-tetraaza-acenaphthylene-2-carboxylic acid (4-piperidin-1-ylmethyl-phenyl)-amide]	41%	18%	28 nM	88%	327 nM		
COc1cc(NC(=O)c2sc3ncnc4c3c2NC(=O)N4c2ccc(Cc3ccccc3)cc2)ccc1OCCN1CCCCC1 [Cpd 163, 5-(4-benzyl-phenyl)-4-oxo-4,5-dihydro-3H-1-thia-3,5,6,8-tetraaza-acenaphthylene-2-carboxylic acid [3-methoxy-4-(2-piperidin-1-yl-ethoxy)-phenyl]-amide]	55%	26%	18 nM		278 nM		
O=C(Nc1ccc(CN2CCCCC2)cc1)c1sc2ncnc3c2c1NC(=O)N3c1ccc(Cc2ccccc2)cc1 [Cpd 164, 5-(4-benzyl-phenyl)-4-oxo-4,5-dihydro-3H-1-thia-3,5,6,8-tetraaza-acenaphthylene-2-carboxylic acid (4-piperidin-1-ylmethyl-phenyl)-amide]	35%	25%	11 nM		103 nM		
O=C(Nc1ccc(CN2CCOCC2)cc1)c1sc2ncnc3c2c1NC(=O)N3c1ccc(Cc2ccccc2)cc1 [Cpd 165, 5-(4-benzyl-phenyl)-4-oxo-4,5-dihydro-3H-1-thia-3,5,6,8-tetraaza-acenaphthylene-2-carboxylic acid (4-morpholin-4-ylmethyl-phenyl)-amide]	39%	29%	23 nM		157 nM		
O=C(Nc1ccc(CCN2CCCCC2)cc1)c1sc2ncnc3c2c1NC(=O)N3c1ccc(Oc2ccccc2)cc1 [Cpd 166, 4-oxo-5-(4-phenoxy-phenyl)-4,5-dihydro-3H-1-thia-3,5,6,8-tetraaza-acenaphthylene-2-carboxylic acid [4-(2-piperidin-1-yl-ethyl)-phenyl]-amide]	51%	22%	21 nM		171 nM		
COc1cc(NC(=O)c2sc3ncnc4c3c2NC(=O)N4c2ccc(Oc3ccccc3)cc2)ccc1OCCN1CCOCC1 [Cpd 167, 4-oxo-5-(4-phenoxy-phenyl)-4,5-dihydro-3H-1-thia-3,5,6,8-tetraaza-acenaphthylene-2-carboxylic acid [3-methoxy-4-(2-morpholin-4-yl-ethoxy)-phenyl]-amide]	51%	35%	20 nM		129 nM		

Second part, led by results:

inhibition at 2 µM (Lyn kinase (human))	inhibition at 2 µM (c-Src kinase (human))	IC50 (EGFR)	inhibition at 1 µM (HER-2)	IC50 (HER-2)	inhibition at 2 µM (EGFR)	SMILES	inhibition in vivo at 100 mg/kg (N87 cells)
28%	-21%	452 nM		12200 nM		O=C(O)c1sc2ncnc3c2c1NC(=O)N3c1ccc(Oc2ccccc2)cc1 [Cpd 168, 4-oxo-5-(4-phenoxy-phenyl)-4,5-dihydro-3H-1-thia-3,5,6,8-tetraaza-acenaphthylene-2-carboxylic acid]	
12%	4%			> 100000 nM	11%	C[C@H](c1ccccc1)N1C(=O)Nc2c(C(=O)O)sc3ncnc1c23 [Cpd 170, 4-oxo-5-[(1R)-1-phenyl-ethyl]-4,5-dihydro-3H-1-thia-3,5,6,8-tetraaza-acenaphthylene-2-carboxylic acid]	
-5%	-8%			> 100000 nM	-3%	C[C@H](c1ccccc1)N1C(=O)Nc2c(C(=O)NC3CCN(C)CC3)sc3ncnc1c23 [Cpd 173, 4-oxo-5-[(1R)-1-phenyl-ethyl]-4,5-dihydro-3H-1-thia-3,5,6,8-tetraaza-acenaphthylene-2-carboxylic acid (1-methyl-piperidin-4-yl)-amide]	
0%	-1%	130 nM		515 nM		O=C(Nc1ccc(CN2CCOCC2)cc1)c1sc2ncnc3c2c1NC(=O)N3c1ccc2c(cnn2Cc2cccc(F)c2)c1 [Cpd 175, 5-[1-(3-fluoro-benzyl)-1H-indazol-5-yl]-4-oxo-4,5-dihydro-3H-1-thia-3,5,6,8-tetraaza-acenaphthylene-2-carboxylic acid (4-morpholin-4-ylmethyl-phenyl)-amide]	
		41 nM		28 nM		Cc1cc(NC(=O)c2sc3ncnc4c3c2NC(=O)N4c2ccc(Oc3ccccc3)cc2)ccc1CN1CCOCC1 [Cpd 232, 4-oxo-5-(4-phenoxy-phenyl)-4,5-dihydro-3H-1-thia-3,5,6,8-tetraaza-acenaphthylene-2-carboxylic acid (3-methyl-4-morpholin-4-ylmethyl-phenyl)-amide]	30.3%
		96 nM		24 nM		CN(C)c1cc(NC(=O)c2sc3ncnc4c3c2NC(=O)N4c2ccc(Oc3ccccc3)cc2)ccc1CN1CCOCC1 [Cpd 257, 4-oxo-5-(4-phenoxy-phenyl)-4,5-dihydro-3H-1-thia-3,5,6,8-tetraaza-acenaphthylene-2-carboxylic acid (3-dimethylamino-4-morpholin-4-ylmethyl-phenyl)-amide]	71.2%
		21 nM		11 nM		NC1CCN(Cc2ccc(NC(=O)c3sc4ncnc5c4c3NC(=O)N5c3ccc(Oc4ccccc4)cc3)cc2)CC1 [Cpd 259, 4-oxo-5-(4-phenoxy-phenyl)-4,5-dihydro-3H-1-thia-3,5,6,8-tetraaza-acenaphthylene-2-carboxylic acid [4-(4-amino-piperidin-1-ylmethyl)-phenyl]-amide]	46.8%
		35 nM		19 nM		O=C(Nc1ccc(CN2CCOCC2)c(O)c1)c1sc2ncnc3c2c1NC(=O)N3c1ccc(Oc2ccccc2)cc1 [Cpd 262, 4-oxo-5-(4-phenoxy-phenyl)-4,5-dihydro-3H-1-thia-3,5,6,8-tetraaza-acenaphthylene-2-carboxylic acid (3-hydroxy-4-morpholin-4-ylmethyl-phenyl)-amide]	70.5%
